Patent US20250066292A1 (The Regents of the University of California, priority 2021, published 2025)

Tests used:
[1] = system: Dermal cystinotic fibroblasts; experiment: Cystine Depletion Study with BL0948, BL0940 or D4-Cystamine; format: cell-based, human; conditions: 100 uM in medium, continual exposure
Procedure: (§1) Cystine Depletion Study. Dermal cystinotic fibroblasts were cultured in medium containing BL0948, BL0940 or D4-Cystamine at the same 100 uM concentration:
Intracellular cystine depletion over time. […] This likely represents a rapid exposure to D2-cysteamine after intracellular uptake. D4-cystamine will most likely reduce after crossing the cell membrane (peak level seen at 45 mins). BL0948 most likely has reduced to D2-cysteamine and the rearranged isomer in the medium before crossing the cell membrane. It is possible that after extracellular reduction that the ratio of D2-Cysteamine to rearranged analog is 10-20:1.

[2] = system: cystinotic fibroblasts; experiment: Intracellular D2-cysteamine and prodrug levels following continual drug exposure; format: cell-based, human; conditions: for intracellular D2-cysteamine levels: 100 uM in media, continual exposure
Procedure: as §1
Intracellular D2-cysteamine levels are measured following continual drug exposure (in media) to cystinotic fibroblasts (FIG. 7).

[3] = Prodrug stability and conversion in the medium and within the cell; format: in vitro ADME
Text: This prodrug analog, BL0940, is very stable both in the medium and within the cell.

[4] = system: CDAHFD induced mouse models of NASH; experiment: Murine CDAHFD NASH Study 2 comparing prodrug analogs BL0940 and BL0948; format: in vivo, mouse (C57BL/6 male); conditions: lower dose of BL0940, once daily gavage
Text: Mice had at least received 8 weeks of CDAHDF diet before starting the study and continued to receive this diet during the next phase of the study. There were 8 mice per group (C57BL/6 male).
• HD BL0940 (High dose) once daily by gavage therapy for 4 • LD BL0940 (low dose) once daily by gavage therapy for 4 • BL0948 once daily by gavage therapy for 4 weeks
The MW of BL0940 is higher than BL0948 and so a higher dose was given. That is, HD BL0940 and BL0948 had capability of releasing same number of D2-cysteamine molecules.

[5] = system: cystinotic fibroblasts; experiment: Cystine measurement during constant cystamine or BL-0856 exposure; format: cell-based, human; conditions: 100 uM, constant exposure 0 min to 5 h, compared with cystamine
Procedure: Drug concentrations: BL-0856 powder was resuspended in water at a concentration of 25 mM. 40 μL of this solution was added to 10 mL of media for a final concentration of 100 uM.
Cystamine was made from high pH oxidation of cysteamine-bitartrate powder (w/Ammonium hydroxide), at a concentration of 25 mM. […] Since this was used for only several timepoints of a control, this was deemed sufficient for this purpose. The drug was also administered to cells at a final concentration of 100 uM.
In vitro experiments with prodrugs in cystinotic fibroblasts. Fibroblasts from a de-identified cystinotic patient were split 3× from 2 plates into 12 plates. An experimental compound, BL-0856, was studied using the following protocols. Several timepoints of cystamine was also performed for comparison. The constant incubation time series for the new compound was: 0, 15 min, 30 min, 1 h, 3 h, and 5 h. The cystamine timepoints were 0, 30 min, 1 h, and 5 h. There was also a washout experiment done for 2 timepoints of the experimental compound, where after 3 hours of constant incubation, the media was exchanged with no compound, and incubated for either 1 h or 3 h. […]

[6] = system: cystinotic fibroblasts; experiment: Cystine measurement after washout; format: cell-based, human; conditions: 100 uM for 3 h, then washout in regular media 0 min, 1 h
Procedure: (§2) In vitro experiments with prodrugs in cystinotic fibroblasts. Fibroblasts from a de-identified cystinotic patient were split 3× from 2 plates into 12 plates. An experimental compound, BL-0856, was studied using the following protocols. Several timepoints of cystamine was also performed for comparison. The constant incubation time series for the new compound was: 0, 15 min, 30 min, 1 h, 3 h, and 5 h. The cystamine timepoints were 0, 30 min, 1 h, and 5 h. There was also a washout experiment done for 2 timepoints of the experimental compound, where after 3 hours of constant incubation, the media was exchanged with no compound, and incubated for either 1 h or 3 h. Harvesting of cells on the plate went as follows 2× washes with PBS that included 5 mM N-ethylmaleimide for trapping free thiol groups, and then scraping the plates with an acidified organic solvent extraction solution containing d4-NEM-cysteamine, d4-cystine, d8-cystamine, ^13C^15N NEM-glutathione, and ^13C, ^15N GSSG as internal standards. All samples were run on an API 4500 triple quadrupole LC-MS/MS, with selective reaction monitoring (SRM/MRM) for the following compounds of interest: cystine, cysteine, cystamine, reduced glutathione, oxidized glutathione (GSSG). […] All data fit well to single exponential curves (either decay or association), except where mentioned. […]

[7] = system: cystinotic fibroblasts; experiment: Cysteamine and cystamine (and prodrug) measurement during constant exposure; format: cell-based, human; conditions: 100 uM; for Cysteamine levels (intracellular) / cystamine levels (intracellular): constant exposure 0 min to 5 h
Procedure: (§3) In vitro experiments with prodrugs in cystinotic fibroblasts. Fibroblasts from a de-identified cystinotic patient were split 3× from 2 plates into 12 plates. An experimental compound, BL-0856, was studied using the following protocols. Several timepoints of cystamine was also performed for comparison. The constant incubation time series for the new compound was: 0, 15 min, 30 min, 1 h, 3 h, and 5 h. The cystamine timepoints were 0, 30 min, 1 h, and 5 h. There was also a washout experiment done for 2 timepoints of the experimental compound, where after 3 hours of constant incubation, the media was exchanged with no compound, and incubated for either 1 h or 3 h. Harvesting of cells on the plate went as follows 2× washes with PBS that included 5 mM N-ethylmaleimide for trapping free thiol groups, and then scraping the plates with an acidified organic solvent extraction solution containing d4-NEM-cysteamine, d4-cystine, d8-cystamine, ^13C^15N NEM-glutathione, and ^13C, ^15N GSSG as internal standards. All samples were run on an API 4500 triple quadrupole LC-MS/MS, with selective reaction monitoring (SRM/MRM) for the following compounds of interest: cystine, cysteine, cystamine, reduced glutathione, oxidized glutathione (GSSG). […] All data fit well to single exponential curves (either decay or association), except where mentioned.
Following incubation, cells are washed 2× in PBS containing N-ethylmaleimide.

[8] = system: cystinotic fibroblasts; experiment: Glutathione and oxidized glutathione measurement during constant exposure; format: cell-based, human; conditions: 100 uM; for oxidized glutathione (GSSG) / ratio of GSH/GSSG: versus 0-minute controls
Procedure: as §3
Glutathione and oxidized glutathione measurement during constant cystamine or BL-0856 exposure: Fibroblast cultures are exposed to 100 uM cystamine or 100 uM BL-0856 for the following timepoints: 0 min, […], 30 min, 1 h, 3 h, and 5 h. Following incubation, cells are washed 2× in PBS containing N-ethylmaleimide. After removing the wash, the cells are harvested on ice using 80% acetonitrile/1% formic acid, containing stable isotope internal standard for glutathione and oxidized glutathione.

[9] = system: cystinotic fibroblasts; experiment: Cysteine measurement during constant exposure; format: cell-based, human; conditions: 100 uM, compared with cystamine
Procedure: as §2

[10] = Stability of BL-0856 resuspended in water (LC-MS); format: physicochemical; conditions: 25 mM in water, 1-week post-resuspension
Procedure: Drug concentrations: BL-0856 powder was resuspended in water at a concentration of 25 mM. 40 μL of this solution was added to 10 mL of media for a final concentration of 100 uM. […] Based upon the LC-MS profile, BL-0856 was likely >80-90% pure (unhydrolyzed) when used in the experiments. A method for the reduced intermediate form was also made, but none of it was found present in the neat standard.

[11] = system: CDAHFD induced mouse models of NASH; experiment: Study 1 NASH/Mouse (CDAHFD diet); format: in vivo, mouse (C57BL/6 male); conditions: 200 mg/kg once daily gavage for 2 weeks; for intrahepatic fibrosis: compared with control group
Procedure: Study 1—NASH/Mouse. Mice had at least received 8 weeks of CDAHFD diet before starting the study and continued to receive this diet during the next phase of the study. There were 4 mice per group (C57BL/6 male): • Control group (c1), water administered once daily by gavage for 2 weeks; • 200 mg/kg of Drug 0 once daily gavage therapy for 2 weeks; • 200 mg/kg of Drug 2 once daily gavage therapy for 2 weeks; • 200 mg/kg of Drug 4 once daily gavage therapy for 2 weeks. FIG. 10A depicts the study outline.

[12] = system: circulating white blood cells; conditions: taken regularly, measured in circulating white blood cells; cited from earlier work
[13] = 400-1000 IU/day for 4-10 months, cited from earlier work

Compound: [2H]C([2H])(CN)SSC[C@H](NC(C)=O)C(=O)OCC [BL0940]
- intracellular cystine depletion (effect on cystine levels) [1]: less of an effect compared to D4-cystamine
- intracellular D2-cysteamine levels [2]: increase over time
- intracellular levels of BL0940 ([2]; continued exposure, e.g. at 240 minute time points): increase over time
- stability in the medium and within the cell [3]: very stable
- effect on markers of inflammation, remodeling and fibrosis [4]: did not have the same degree of effect

Compound: [2H]C([2H])(CN)SC(C)=O [BL0948]
- intracellular cystine depletion (effect on cystine levels) [1]: rapid and more profound
- intracellular cystine depletion (effect on cystine levels) ([1]; listed as BL-948): pronounced effect
- intracellular D2-cysteamine levels [2]: relatively high level
- conversion of prodrug to D2-cysteamine ([3]; portion rearranges to the N-acetylated isomer): does not convert entirely to D2-cysteamine

Compound: Cl.Cl.Cl.NCCSSC[C@H](N)C(=O)SCCN [BL-0856, (S)-3-((2-ammonioethyl)disulfaneyl)-1-((2-ammonioethyl)thio)-1-oxopropan-2-aminium chloride]
- cystine depletion rates [5]: nearly identical
- cystine reaccumulation rate [6]: comparable to cystamine
- BL-0856 and the thiol reduced intermediate in cells ([7]; any of the timepoints, LC-MS/MS): not found at high enough levels to be identified
- Cysteamine levels (intracellular) [7]: nearly identical
- cystamine levels (intracellular) [7]: some cystamine still exists
- glutathione ([8]; between the 2 drug forms): no obvious differences
- oxidized glutathione (GSSG) [8]: goes up at the first timepoint
- ratio of GSH/GSSG [8]: lower throughout all timepoints
- cysteine (intracellular) [9]: higher
- content of resuspended drug (stability in water) [10]: contained cysteamine and cystamine

Compound: [2H]C(CN)SSC([2H])CN (stereo not shown) [D2-cystamine]
- intrahepatic fibrosis [11]: significant reduction
- markers of fibrosis (aSMA) ([11]; versus control groups): significant reduction
- markers of inflammation (F4/80) ([11]; versus control groups): significant reduction
- markers of inflammation (FIG. 12A-B) ([11]; versus control groups): significant reduction

Compound: [2H]C([2H])(CN)SSC([2H])([2H])CN [D4-cystamine]
- intrahepatic fibrosis [11]: significant reduction

Compound: NCCSSCCN [cystamine, reference compound]
- Cysteamine levels (intracellular) [7]: nearly identical
- cystamine levels (intracellular) [7]: higher
- oxidized glutathione (GSSG) [8]: goes up at the first timepoint
- ratio of GSH/GSSG [8]: lower throughout all timepoints

Compound: NCCS [cysteamine]
- depletion of intracellular cystine [12]: up to 90%

Compound: vitamin E
- mean AST levels after treatment ([13]; decreased from 104±61 IU/L): 33±11 IU/L
- mean ALT levels after treatment ([13]; decreased from 175±106 IU/L): 40±26 IU/L
